Measurements from article PMC8329197, “Compounds targeting OSBPL7 increase ABCA1-dependent cholesterol efflux preserving kidney function in two models of kidney disease” (Nature Communications, 2021).
Several values for one entry are separate records, joined by “and”; a condition that tells them apart may be missing. Equal entries are not always repeated.

Columns and labels:
[1] = tested on: Tangier (ABCA1-deficient) fibroblasts; experiment: Cholesterol efflux in Tangier (ABCA1-deficient) fibroblasts; settings: for Cholesterol Efflux (%), Tangier Fibroblasts: ABCA1-deficient, Cpd H, Cpd J 10 μM, single experiments
OSBPL7 = tested on: T1, OSBPL7; experiment: Competition with ^3H-Cpd K UV cross-linking to FLAG-tagged OSBPL7 in HEK293 cells (immunoprecipitation, autoradiography); format: binding, human; set-up: OSBP7 percentage of inhibition / OSBP7 percentage of inhibition, average: concentration or dose not given beside the values; OSBPL7 Competition %: dose or concentration left out as unconfirmed; settings: for OSBP7 percentage of inhibition, average: average of 3; for OSBPL7 Competition %: average(SEM); for OSBP7 percentage of inhibition: single experiments (3 per compound)
T1 construct: Plasmids expressing each as a full-length protein with a C-terminal FLAG tag were obtained; expressed in transfected cells; host or cells: HEK293
Description: Briefly, a plasmid expressing a candidate target of interest fused with a FLAG tag was transfected into HEK293 cells. After 24 h, tritiated compound K at a concentration capable of inducing ABCA1-mediated cholesterol efflux (1.0 μM) was added for 3 h, then the live cells were exposed to UV-light (ʎ = 336 nm) to query potential compound/target cross-linking in situ. Cell lysates were prepared, the expressed protein was then selectively immunoprecipitated using an anti-FLAG antibody coupled to sepharose beads, bound proteins were separated by SDS-PAGE, and two identical blots were prepared and probed by western blot and by autoradiography to detect protein expression and presence or absence of compound crosslinking, respectively. The flow chart of this screen is illustrated in Fig. 2. Figure 2d illustrates the ability of Cpd A and Cpd G to displace tritiated Cpd K from overexpressed and immunoprecipitated OSBPL7. Figure 3b illustrates the use of this assay to detect binding of tritiated Cpd K to overexpressed and immunoprecipitated variants of OSBPL7 containing point mutations in the predicted oxysterol binging pocket of OSBPL7. The advantages of this method are: i. the use of plasmid transfection leads to high expression of each candidate which reduces the likelihood to miss an authentic target for those which may be expressed at low endogenous levels, ii. the interaction of the chemical probe with its target occurs in a relevant biological context (live cells) at a pharmacologically active concentration, and iii. immunoprecipitation allows the expressed protein of interest to be purified from background proteins, substantially improving the signal/noise ratio.

human THP1 macrophages = experiment: apoAI-mediated (ABCA1) cholesterol efflux from cholesterol-loaded THP1 macrophages; format: cell-based; set-up: ABCA1 Efflux %: dose or concentration left out as unconfirmed; settings: for EC50: THP-1, apoAI-dependent cholesterol efflux from human THP1 cells; for ABCA1 percentage of induction, average: average of 3; for ABCA1 Efflux %: average(SEM); for ABCA1 percentage of induction: single experiments (3 per compound); for ABCA1 Efflux active/ inactive / ApoA1-mediated Cholesterol Efflux (Fold increase over vehicle control), mean / ApoA1-mediated Cholesterol Efflux (%) / ApoA1-mediated Cholesterol Efflux (Fold increase over vehicle control): THP1 cells; for ABCA1 Efflux active/ inactive: vs. the effect of T1317; for ApoA1-mediated Cholesterol Efflux (Fold increase over vehicle control), mean / ApoA1-mediated Cholesterol Efflux (%) / ApoA1-mediated Cholesterol Efflux (Fold increase over vehicle control): 5 µM; for ApoA1-mediated Cholesterol Efflux (Fold increase over vehicle control), mean: mean of 3; for ApoA1-mediated Cholesterol Efflux (%) / ApoA1-mediated Cholesterol Efflux (Fold increase over vehicle control): single experiments; for Induction of ABCA1 cholesterol efflux: THP1 cells (Fig. 3a, 4a)
[2] = target: human cannabinoid 1 receptor (hCB1-R) (Homo sapiens, UniProt P21554); experiment: Potency for binding to the CB1R in vitro (Ki); settings: for Ki: human CB1 receptor binding
normal human fibroblasts = experiment: Cholesterol efflux to apoAI in normal human fibroblasts; settings: for Cholesterol Efflux (%), Normal Fibroblasts: efflux to apoAI, Cpd H, Cpd J 10 μM, single experiments
ABCA1 mRNA = ABCA1 mRNA by quantitative real-time PCR in cholesterol-loaded THP1 macrophages; format: cell-based, human; settings: 24 h; for Effect on ABCA1 mRNA: up to 25 μM, THP1 macrophages
Description: RNA was isolated using RNEasy Plus Mini kit (Qiagen). Reverse transcription was performed using qScript cDNA Super Mix (Quantabio) according to the manufacturer’s instructions. Quantitative real-time PCR was performed using TaqMan Fast Universal PCR Master Mix and Taqman gene expression assays (Supplementary Table 7).

[3] = tested on: T2, OSBPL7 single mutations in the putative ORD; experiment: ^3H-Cpd K binding to OSBPL7 single mutants (cross-linking/immunoprecipitation); set-up: species or system human; settings: K636A vs wild type
T2 construct: Plasmids expressing each as a full-length protein with a C-terminal FLAG tag were obtained; expressed in transfected cells; host or cells: HEK293
From the text: Based on the model, we identified key amino acid residues predicted to line the OSBPL7 ligand-binding pocket, and introduced a series of single mutations. Each mutant was transfected into cells and tested for ^3H-Cpd K binding. Mutation of lysine 636 to alanine reduced the ability of Cpd K to be crosslinked to OSBPL7 by ~75% (Fig. 3b). […] The homology model also predicts that a hydrophobic beta sheet lines the pocket, defined by amino acids that are conserved in the ORDs of other OSBPs (Ile641, Val616, Val618, and Lys636).
Briefly, a plasmid expressing a candidate target of interest fused with a FLAG tag was transfected into HEK293 cells. After 24 h, tritiated compound K at a concentration capable of inducing ABCA1-mediated cholesterol efflux (1.0 μM) was added for 3 h, then the live cells were exposed to UV-light (ʎ = 336 nm) to query potential compound/target cross-linking in situ. Cell lysates were prepared, the expressed protein was then selectively immunoprecipitated using an anti-FLAG antibody coupled to sepharose beads, bound proteins were separated by SDS-PAGE, and two identical blots were prepared and probed by western blot and by autoradiography to detect protein expression and presence or absence of compound crosslinking, respectively. The flow chart of this screen is illustrated in Fig. 2. […]

Col4a3 KO mice = experiment: Alport syndrome model: ACR, serum creatinine, BUN, body weight (also vs ramipril); settings: individual mouse values
[4] = 8-week old Col4a3 KO mice, 28 days treatment starting at the age of 4 weeks

Chain of human cannabinoid 1 receptor (hCB1-R) (P21554 whole entry): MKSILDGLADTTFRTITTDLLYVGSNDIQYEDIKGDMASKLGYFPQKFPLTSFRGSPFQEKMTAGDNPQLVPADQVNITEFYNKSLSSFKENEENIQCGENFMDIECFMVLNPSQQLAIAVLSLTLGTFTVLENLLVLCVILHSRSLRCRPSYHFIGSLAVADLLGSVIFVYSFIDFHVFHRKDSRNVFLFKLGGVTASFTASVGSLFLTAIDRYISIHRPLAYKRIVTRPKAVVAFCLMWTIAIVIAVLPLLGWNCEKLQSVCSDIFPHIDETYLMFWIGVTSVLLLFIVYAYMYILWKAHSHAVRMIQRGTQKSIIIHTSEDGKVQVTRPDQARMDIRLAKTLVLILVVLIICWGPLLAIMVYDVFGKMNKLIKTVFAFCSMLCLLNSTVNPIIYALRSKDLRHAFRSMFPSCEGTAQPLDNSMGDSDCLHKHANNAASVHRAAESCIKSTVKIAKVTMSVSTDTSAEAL

| Compound | OSBP7 percentage of inhibition, average (OSBPL7) | OSBPL7 Competition % (OSBPL7) | OSBP7 percentage of inhibition (OSBPL7) | ABCA1 percentage of induction, average (human THP1 macrophages) | ABCA1 Efflux % (human THP1 macrophages) | ABCA1 percentage of induction (human THP1 macrophages) | Ki [2] | ABCA1 Efflux active/ inactive (human THP1 macrophages) | further results |
| --- | --- | --- | --- | --- | --- | --- | --- | --- | --- |
| O=C(N[C@@H]1CCCC[C@H]1O)c1cnc(OCC2CC2)c(-c2ccc(Cl)cc2)c1 [Cpd H] | 55% | 55(5.0) % | 49% and 51% and 65% | 106% | 106(6.8) % | 112% and 92% and 113% | 11.4 ± 4.5 nM |  | Cholesterol efflux to apoAI from ABCA1-deficient fibroblasts [1]: not from ABCA1-deficient fibroblasts; Cholesterol Efflux (%), Tangier Fibroblasts [1]: 1.75% and 1.88% and 1.89%; EC50 (human THP1 macrophages): 120 nM; Cholesterol efflux to apoAI from normal fibroblasts (normal human fibroblasts): increase cholesterol efflux to apoAI from normal; Cholesterol Efflux (%), Normal Fibroblasts (normal human fibroblasts): 3.97% and 4.44% and 4.67%; Effect on ABCA1 mRNA (ABCA1 mRNA): no effect |
| [N-]=[N+]=Nc1ccc(-c2cc(C(=O)N[C@@H]3CCCC[C@H]3O)cnc2OCC2CC2)cc1Cl [Cpd K, 5-(4-azido-3-chlorophenyl)-6-(cyclopropylmethoxy)-N-[(1R,2R)-2-hydroxycyclohexyl]-3-pyridine-carboxamide] | 68% | 68(3.8) % | 62% and 75% and 68% | 49% | 49(10.7) % |  | 2570 nM |  | Competition for ^3H-Cpd K binding to OSBPL7 (OSBPL7; unlabeled Cpd K at 50-fold excess, Cpd A, Cpd G 10 and 50 µM): effectively competed; Reduction of binding/crosslinking to OSBPL7 by mutation K636A [3]: ~ 75%; Fold reduced affinity for hCB1R ([2]; vs Cpd H): more than 200 fold |
| Cc1cc(-c2cc(NC(=O)c3cccnc3)cnc2OCC(F)(F)F)ccn1 [Cpd R] | 17% | 17(5.0) % |  | -10% | -10(5) % |  |  | Inactive |  |
| CCCCC/C=C\C/C=C\C/C=C\C/C=C\CCCC(=O)NCCCl [ACEA, arachidonyl choloroethylamine, reference compound] |  |  |  |  |  |  |  |  | ApoA1-mediated Cholesterol Efflux (Fold increase over vehicle control), mean (human THP1 macrophages): 0.962 fold; ApoA1-mediated Cholesterol Efflux (%) (human THP1 macrophages): 3% and 2.5% and 1.4%; ApoA1-mediated Cholesterol Efflux (Fold increase over vehicle control) (human THP1 macrophages): 1.047 fold and 1.044 fold and 0.796 fold; Induction of ABCA1 cholesterol efflux (human THP1 macrophages): inactive |
| O=C(N[C@@H]1CCCC[C@H]1O)c1cnc(OCC(F)(F)F)c(-c2ccc(Cl)cc2)c1 [Cpd J] | 40% | 40(12.2) % |  | 100% | 100(15.0) % | 83% and 130% and 87% | 12.4 ± 6.7 nM |  | Cholesterol efflux to apoAI from ABCA1-deficient fibroblasts [1]: not from ABCA1-deficient fibroblasts; Cholesterol Efflux (%), Tangier Fibroblasts [1]: 1.8% and 2.06% and 2.65%; Cholesterol efflux to apoAI from normal fibroblasts (normal human fibroblasts): increase cholesterol efflux to apoAI from normal; Cholesterol Efflux (%), Normal Fibroblasts (normal human fibroblasts): 5.75% and 6.18% and 6.91%; Effect on ABCA1 mRNA (ABCA1 mRNA): no effect |
| O=C(Nc1cnc(OCC(F)(F)F)c(-c2ccc(Cl)cc2)c1)c1cccnc1 [Cpd M] | 98% | 98(5.2) % | 107% and 97% and 89% | 113% | 133(42.5) % |  | > 10000 nM |  |  |
| Cc1c(C(=O)NN2CCCCC2)nn(-c2ccc(Cl)cc2Cl)c1-c1ccc(Cl)cc1 [rimonabant, reference compound] | 0% | 0(0) % | 0% | 0% | 0(0) % | 0% |  | Inactive | ApoA1-mediated Cholesterol Efflux (%) (human THP1 macrophages): 3.95% and 2.4% and 1.2%; Induction of ABCA1 cholesterol efflux (human THP1 macrophages): did not induce ABCA1 cholesterol efflux |
| [3H]c1nc(OCC2CC2)c(-c2ccc(N=[N+]=[N-])c(Cl)c2)c([3H])c1C(=O)N[C@@H]1CCCC[C@H]1O [^3H-Cpd K] |  |  |  |  |  |  | 2570 nM |  | EC50 (human THP1 macrophages): 200 nM; Reduction of binding/crosslinking to OSBPL7 by mutation K636A [3]: ~ 75% |
| O=S(=O)(c1ccccc1)N(CC(F)(F)F)c1ccc(C(O)(C(F)(F)F)C(F)(F)F)cc1 [T1317, reference compound] |  |  |  |  |  |  |  |  | Cholesterol efflux to apoAI from ABCA1-deficient fibroblasts [1]: not from ABCA1-deficient fibroblasts; Cholesterol Efflux (%), Tangier Fibroblasts [1]: 2.04% and 2.39% and 2.47%; Cholesterol efflux to apoAI from normal fibroblasts (normal human fibroblasts): increase cholesterol efflux to apoAI from normal; Cholesterol Efflux (%), Normal Fibroblasts (normal human fibroblasts): 5.16% and 5.7% and 5.82%; Upregulation of ABCA1 mRNA (ABCA1 mRNA; cholesterol-loaded THP1 macrophages): ~ 5 fold |
| O=C(N[C@H]1CCCC[C@H]1O)c1cnc(OCC(F)(F)F)c(-c2ccc(Cl)c(Cl)c2)c1 [Cpd L] | 53% | 53(4.7) % | 55% and 44% and 60% | 104% | 104(18.8) % | 94% and 77% and 140% | 7000 nM |  |  |
| CCCCNC(=O)CCc1ccc(-c2cc(C(=O)N[C@@H]3CCCC[C@H]3O)cnc2OCC2CC2)cc1 [Cpd N] | 38% | 38(9.5) % |  | 24% | 24(5.0) % |  |  | Inactive |  |
| O=C(N[C@@H]1CCCOC1=O)c1cc(-c2ccc(Cl)cc2)c(OCC(F)(F)F)cn1 [Cpd Q] | 8% | 8(2.2) % | 12% and 6% and 5% | 2% | 2(0.6) % | 1% and 2% and 3% |  | Inactive |  |
| Cc1c(C(=O)c2cccc3ccccc23)c2cccc3c2n1[C@H](CN1CCOCC1)CO3 [WIN55-212-2, reference compound] |  |  |  |  |  |  |  |  | ApoA1-mediated Cholesterol Efflux (Fold increase over vehicle control), mean (human THP1 macrophages): 0.882 fold; ApoA1-mediated Cholesterol Efflux (%) (human THP1 macrophages): 2.57% and 2.5% and 1.3%; ApoA1-mediated Cholesterol Efflux (Fold increase over vehicle control) (human THP1 macrophages): 0.895 fold and 1.016 fold and 0.735 fold; Induction of ABCA1 cholesterol efflux (human THP1 macrophages): inactive |
| Cc1cncc(-c2cc(NC(=O)c3cccnc3)cnc2OCC(F)(F)F)c1 [Cpd S] | 0.333% | 0(0.3) % | 0% and 1% | 2.67% | 3(0.8) % | 1% and 3% and 4% |  | Inactive |  |
| CCOC(=O)[C@H](CCc1ccccc1)N[C@@H](C)C(=O)N1[C@H](C(=O)O)C[C@@H]2CCC[C@@H]21 [ramipril, reference compound] |  |  |  |  |  |  |  |  | Albumin to Creatinine ratio (Col4a3 KO mice; spot urines, 8-week old Col4a3 KO mice treated from the age of 4 weeks, listed as Ram): 31.85 mg Alb. /mg Cre and 41.0281 mg Alb. /mg Cre and 31.514 mg Alb. /mg Cre and 21.7026 mg Alb. /mg Cre and 31.192 mg Alb. /mg Cre |
| Cn1cccc(NC(=O)c2cc(-c3ccc(Cl)cc3)c(OCC(F)(F)F)cn2)c1=O [Cpd P] | 0% | 0(0) % | 0% | 3.67% | 4(0.9) % | 4% and 5% and 2% |  | Inactive |  |
| CCOC(=O)C(CCc1ccccc1)NC(C)C(=O)N1C(C(=O)O)CC2CCCC21 (stereo not drawn) [Ramp] |  |  |  |  |  |  |  |  | BUN (Col4a3 KO mice; [4]): 33 mg/dL and 30 mg/dL and 43 mg/dL and 36 mg/dL and 26 mg/dL and 46 mg/dL and 42 mg/dL and 39 mg/dL; Serum Creatinine (Col4a3 KO mice; [4]): 1.99 µg/mL and 0.12 µg/mL and 2 µg/mL and 3.6 µg/mL and 0.9 µg/mL and 0.28 µg/mL and 1.66 µg/mL |
